For orientation: IC50 means the concentration that inhibits the measured activity by half. One may read the AC50 as the concentration at which the activity in the assay is half-maximal. By EC50 is commonly meant the concentration giving half of the maximal effect. The term CC50 denotes the concentration giving 50% cytotoxicity.

The values that follow come from ChEMBL document CHEMBL1201862, “PubChem BioAssay data set” (2004).

Molecules are shown by their SMILES. Calls of active or inactive are those of the source. Some results are limits rather than exact numbers.

For experiment [1], the target named is T1, Sphingosine 1-phosphate receptor 4 (Homo sapiens, UniProt O95977).
T1 sequence (O95977 whole entry): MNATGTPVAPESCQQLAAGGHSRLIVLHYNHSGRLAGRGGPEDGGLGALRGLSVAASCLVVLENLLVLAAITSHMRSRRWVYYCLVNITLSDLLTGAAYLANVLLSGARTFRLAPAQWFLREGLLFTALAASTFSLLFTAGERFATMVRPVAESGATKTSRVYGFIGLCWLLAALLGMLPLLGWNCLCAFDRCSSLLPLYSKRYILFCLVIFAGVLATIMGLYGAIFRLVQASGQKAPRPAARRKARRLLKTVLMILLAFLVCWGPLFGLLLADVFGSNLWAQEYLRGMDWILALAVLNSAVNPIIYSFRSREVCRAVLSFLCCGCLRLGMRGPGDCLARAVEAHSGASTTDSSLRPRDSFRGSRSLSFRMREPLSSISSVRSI
The experiment is described as follows: Fluorescence dose response cell-based high throughput screening assay for antagonists of the Sphingosine 1-Phosphate Receptor 4 (S1P4). [Related pubchem assays: 1524 (Confirmation in triplicates.), 1510 (Primary screen.)]. In kind it is functional.

The target in experiment [2] is T1, Sphingosine 1-phosphate receptor 4. The experiment is described as follows: Late stage fluorescence dose response cell-based screening assay for antagonists of the Sphingosine 1-Phosphate Receptor 4 (S1P4). [Related pubchem assays: 1524 (Confirmation screen (S1P4 antagonists).), 1510 (Primary screen (S1P4 antagonists).), 1853 (Summary AID (S1P4 antagonists).), 1692 (Dose response screen (S1P4 antagonists).)]. The experiment is classed as functional.

Experiment [3] addresses Sphingosine 1-phosphate receptor 1 (Homo sapiens, UniProt P21453). In kind it is functional.
Experiment [4] addresses T2, Replicative DNA helicase DnaB (Mycobacterium tuberculosis, UniProt P9WMR3).
T2 sequence (P9WMR3 whole entry): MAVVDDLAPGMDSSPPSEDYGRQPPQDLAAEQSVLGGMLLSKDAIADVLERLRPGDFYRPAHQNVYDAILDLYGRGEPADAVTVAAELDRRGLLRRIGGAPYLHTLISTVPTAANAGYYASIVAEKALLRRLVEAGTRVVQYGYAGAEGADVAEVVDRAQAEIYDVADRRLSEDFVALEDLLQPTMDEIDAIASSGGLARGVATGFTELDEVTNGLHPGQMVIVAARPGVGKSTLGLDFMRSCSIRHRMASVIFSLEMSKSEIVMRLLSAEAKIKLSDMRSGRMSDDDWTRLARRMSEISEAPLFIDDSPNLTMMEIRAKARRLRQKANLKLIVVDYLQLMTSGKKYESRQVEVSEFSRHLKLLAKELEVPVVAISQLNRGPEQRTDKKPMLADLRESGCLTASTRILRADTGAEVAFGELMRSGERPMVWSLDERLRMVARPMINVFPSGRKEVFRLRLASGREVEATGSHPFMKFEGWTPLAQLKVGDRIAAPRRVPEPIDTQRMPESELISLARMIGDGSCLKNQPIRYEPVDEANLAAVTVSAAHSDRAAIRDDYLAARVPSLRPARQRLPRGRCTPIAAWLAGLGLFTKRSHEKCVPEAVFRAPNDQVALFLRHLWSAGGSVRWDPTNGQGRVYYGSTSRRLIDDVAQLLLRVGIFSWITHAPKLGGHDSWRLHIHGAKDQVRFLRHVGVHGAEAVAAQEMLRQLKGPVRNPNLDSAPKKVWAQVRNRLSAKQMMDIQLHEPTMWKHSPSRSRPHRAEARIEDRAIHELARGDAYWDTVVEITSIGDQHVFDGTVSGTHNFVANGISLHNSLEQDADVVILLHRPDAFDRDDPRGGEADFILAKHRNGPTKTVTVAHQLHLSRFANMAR
The experiment is described as follows: DnaB intein splicing inhibitors, dose response, biochemical, cell-free fluorescence (AID 449749). The experiment is classed as functional.

In another experiment the target is T3, Protein RecA (Mycobacterium tuberculosis, UniProt P9WHJ3).
T3 sequence (P9WHJ3 whole entry): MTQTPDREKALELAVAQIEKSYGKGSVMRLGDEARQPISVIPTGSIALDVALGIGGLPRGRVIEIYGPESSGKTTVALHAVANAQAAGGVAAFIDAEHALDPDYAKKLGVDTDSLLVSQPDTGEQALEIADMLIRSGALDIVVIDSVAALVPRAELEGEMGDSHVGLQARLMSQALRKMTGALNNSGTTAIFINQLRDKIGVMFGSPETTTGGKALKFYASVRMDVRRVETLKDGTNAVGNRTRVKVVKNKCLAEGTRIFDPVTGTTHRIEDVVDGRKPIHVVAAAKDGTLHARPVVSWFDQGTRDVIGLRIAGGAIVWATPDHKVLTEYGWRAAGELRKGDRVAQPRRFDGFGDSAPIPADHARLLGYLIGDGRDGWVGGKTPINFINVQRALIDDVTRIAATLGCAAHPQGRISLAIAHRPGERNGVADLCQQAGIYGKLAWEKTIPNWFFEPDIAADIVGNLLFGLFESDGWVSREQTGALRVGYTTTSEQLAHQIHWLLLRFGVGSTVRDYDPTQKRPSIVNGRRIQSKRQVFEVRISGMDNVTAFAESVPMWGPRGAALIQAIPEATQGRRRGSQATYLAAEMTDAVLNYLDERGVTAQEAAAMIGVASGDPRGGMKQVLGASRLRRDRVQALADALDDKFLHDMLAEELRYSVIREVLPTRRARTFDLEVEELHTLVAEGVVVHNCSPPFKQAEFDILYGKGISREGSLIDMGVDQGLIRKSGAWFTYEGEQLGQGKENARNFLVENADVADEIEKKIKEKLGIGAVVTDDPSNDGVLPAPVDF
The experiment is described as follows: Fluorescence Cell-Free Homogeneous Dose Retest to Identify Inhibitors of RecA-Intein Splicing Activity. [Related pubchem assays (depositor defined):AID2097, AID2223, AID489010, AID492950]. The experiment is classed as functional.

Experiment [5] deals with T4, Sphingosine 1-phosphate receptor 2 (Homo sapiens, UniProt O95136). The experiment is described as follows: Dose Response Cell Based Assay for Antagonists of the S1P2 Receptor. [Related pubchem assays: 856, 736 ]. The experiment is classed as functional.
T4 sequence (O95136 whole entry): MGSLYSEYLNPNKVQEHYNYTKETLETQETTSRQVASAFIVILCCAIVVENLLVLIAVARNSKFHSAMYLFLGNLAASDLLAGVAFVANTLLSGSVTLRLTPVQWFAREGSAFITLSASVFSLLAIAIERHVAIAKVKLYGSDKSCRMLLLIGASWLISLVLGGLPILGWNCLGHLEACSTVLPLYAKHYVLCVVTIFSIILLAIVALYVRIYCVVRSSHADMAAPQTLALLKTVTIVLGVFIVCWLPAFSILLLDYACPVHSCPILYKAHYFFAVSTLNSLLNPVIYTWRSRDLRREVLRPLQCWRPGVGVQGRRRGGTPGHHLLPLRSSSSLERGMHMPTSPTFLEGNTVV
The test system of the next experiment is HT-1080. The experiment is described as follows: HT1080 cell viability loss – fluorescence readout (AID 620). The settings on record: Homo sapiens. The experiment is classed as functional, cell-based.
Experiment [6] concerns the target Luciferin 4-monooxygenase (Photinus pyralis, UniProt P08659). The experiment is described as follows: Counter Screen for Luciferase-based Assay Positives. [Related pubchem assays: 620, 618, 411 ]. A general note: The purpose of a counterscreen is to sort out artefacts and off-target activity.
The nature of experiment [7]: potency of ADAM10 substrate cleavage blockers – biochemical, QFRET, dose response (AID 743254).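 Also: ADAM10 enzyme with the DM2 quenched FRET peptide as substrate; EDANS fluorescence gain as the protease cuts the substrate; inhibitor potency against ADAM10 proteolytic activity.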
A short description of experiment [8]: viability of HCT116 lacking mutant beta-catenin – cell-based, human colon tumor, dose response (AID 1045).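 Also: HCT116 colon tumor cells with beta catenin knocked out; cells exposed to compound for 60 hours.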 The experiment is classed as functional.
Experiment [9] addresses T4, Sphingosine 1-phosphate receptor 2. The experiment is described as follows: Dose Response Cell Based Assay for Agonists of the S1P2 Receptor. [Related pubchem assays: 729, 736, 843 ]. In kind it is functional.
Experiment [10] in a line: Luminescence Cell-Based Dose Retest to Confirm Inhibitors of Cancer Stem Cells. [Related pubchem assays (depositor defined):AID2717, AID2721]. The conditions noted are these: Homo sapiens. In kind it is functional.
Experiment [11] is described as follows: viability of PTEN-deleted HCT116 cells – cell-based, HCT116 PTEN knockout, dose response (AID 1047).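 Also: HCT116 colon tumor cells with PTEN knocked out; cells exposed to compound for 60 hours before readout; potency for loss of cell viability measured by luminescence.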 The experiment is classed as functional.
Experiment [12] deals with Disintegrin and metalloproteinase domain-containing protein 17 (Homo sapiens, UniProt P78536). The experiment is described as follows: inhibition of ADAM17 substrate cleavage – biochemical, quenched FRET substrate, counter-screen for ADAM10 exosite inhibitor project, dose response (AID 743253).
Disintegrin and metalloproteinase domain-containing protein 17, sequence (P78536 whole entry, the tested form may be a part): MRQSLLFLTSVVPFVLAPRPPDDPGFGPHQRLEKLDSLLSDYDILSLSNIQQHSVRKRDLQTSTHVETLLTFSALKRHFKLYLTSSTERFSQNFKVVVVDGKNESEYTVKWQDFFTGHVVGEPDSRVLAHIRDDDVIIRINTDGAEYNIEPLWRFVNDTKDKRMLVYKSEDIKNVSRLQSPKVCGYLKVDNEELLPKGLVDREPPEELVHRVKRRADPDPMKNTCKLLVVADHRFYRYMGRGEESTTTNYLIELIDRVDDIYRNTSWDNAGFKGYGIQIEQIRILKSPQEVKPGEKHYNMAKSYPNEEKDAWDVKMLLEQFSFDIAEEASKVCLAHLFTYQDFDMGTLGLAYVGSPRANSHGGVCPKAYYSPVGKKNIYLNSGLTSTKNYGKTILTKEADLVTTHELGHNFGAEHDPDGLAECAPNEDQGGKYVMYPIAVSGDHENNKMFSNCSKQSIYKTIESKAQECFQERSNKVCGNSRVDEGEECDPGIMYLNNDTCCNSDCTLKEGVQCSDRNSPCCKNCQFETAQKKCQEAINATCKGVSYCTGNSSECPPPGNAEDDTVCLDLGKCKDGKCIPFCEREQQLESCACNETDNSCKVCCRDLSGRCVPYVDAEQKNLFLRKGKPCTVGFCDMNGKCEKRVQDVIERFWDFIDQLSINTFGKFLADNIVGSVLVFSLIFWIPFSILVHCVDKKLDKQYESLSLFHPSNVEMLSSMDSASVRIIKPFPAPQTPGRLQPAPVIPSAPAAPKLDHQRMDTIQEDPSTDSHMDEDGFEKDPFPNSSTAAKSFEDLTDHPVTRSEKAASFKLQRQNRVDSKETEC
Experiment [13] deals with T5, Eukaryotic translation initiation factor 2-alpha kinase 3 (Homo sapiens, UniProt Q9NZJ5).
T5 sequence (Q9NZJ5 whole entry): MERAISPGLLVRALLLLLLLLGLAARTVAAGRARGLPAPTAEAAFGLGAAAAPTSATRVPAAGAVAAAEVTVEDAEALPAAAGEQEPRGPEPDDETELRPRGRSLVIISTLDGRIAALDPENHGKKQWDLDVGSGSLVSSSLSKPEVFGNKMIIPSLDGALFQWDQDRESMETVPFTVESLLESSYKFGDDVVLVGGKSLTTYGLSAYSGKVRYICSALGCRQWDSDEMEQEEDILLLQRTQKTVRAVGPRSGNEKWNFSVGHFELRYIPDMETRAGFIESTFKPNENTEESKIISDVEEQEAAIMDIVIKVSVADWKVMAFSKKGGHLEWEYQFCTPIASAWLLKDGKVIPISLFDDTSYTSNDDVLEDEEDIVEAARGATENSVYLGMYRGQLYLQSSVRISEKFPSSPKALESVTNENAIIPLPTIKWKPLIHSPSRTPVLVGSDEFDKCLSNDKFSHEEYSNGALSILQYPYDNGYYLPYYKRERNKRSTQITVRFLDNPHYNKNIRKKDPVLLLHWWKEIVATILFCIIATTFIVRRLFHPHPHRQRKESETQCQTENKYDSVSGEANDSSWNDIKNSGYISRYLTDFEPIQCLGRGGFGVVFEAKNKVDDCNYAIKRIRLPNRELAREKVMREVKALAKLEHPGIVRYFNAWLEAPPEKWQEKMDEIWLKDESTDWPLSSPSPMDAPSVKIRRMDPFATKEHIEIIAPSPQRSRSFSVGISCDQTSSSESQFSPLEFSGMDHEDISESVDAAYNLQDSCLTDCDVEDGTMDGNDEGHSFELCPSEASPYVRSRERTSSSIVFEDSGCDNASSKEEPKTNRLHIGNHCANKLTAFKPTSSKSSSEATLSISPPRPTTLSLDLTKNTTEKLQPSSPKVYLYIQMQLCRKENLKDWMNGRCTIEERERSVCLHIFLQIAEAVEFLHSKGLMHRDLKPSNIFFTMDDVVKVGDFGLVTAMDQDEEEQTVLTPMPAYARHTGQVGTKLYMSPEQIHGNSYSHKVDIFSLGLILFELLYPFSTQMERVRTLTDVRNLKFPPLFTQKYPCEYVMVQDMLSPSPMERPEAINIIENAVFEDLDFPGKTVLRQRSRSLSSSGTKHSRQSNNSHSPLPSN
The experiment is described as follows: Dose response cell-based high-throughput screening assay to measure PERK inhibition. [Related pubchem assays: 1416 ]. The experiment is classed as functional.

The nature of experiment [14]: M. tuberculosis growth inhibition, HTS (AID 449762). In kind it is functional.
Experiment [15] can be described thus: THP-1 cell cytotoxicity, dose response, cytotoxicity control for non-replicating M. tuberculosis project (AID 489025). In kind it is functional.
Experiment [16] has as its target T5, Eukaryotic translation initiation factor 2-alpha kinase 3. The experiment is described as follows: Counterscreen assay for PERK inhibitors: Dose response cell-based high throughput screening assay to measure inhibition of PERK at 6 hours. [Related pubchem assays: 1522, 1416 ]. In kind it is functional.

Luciferin 4-monooxygenase, sequence (P08659 whole entry): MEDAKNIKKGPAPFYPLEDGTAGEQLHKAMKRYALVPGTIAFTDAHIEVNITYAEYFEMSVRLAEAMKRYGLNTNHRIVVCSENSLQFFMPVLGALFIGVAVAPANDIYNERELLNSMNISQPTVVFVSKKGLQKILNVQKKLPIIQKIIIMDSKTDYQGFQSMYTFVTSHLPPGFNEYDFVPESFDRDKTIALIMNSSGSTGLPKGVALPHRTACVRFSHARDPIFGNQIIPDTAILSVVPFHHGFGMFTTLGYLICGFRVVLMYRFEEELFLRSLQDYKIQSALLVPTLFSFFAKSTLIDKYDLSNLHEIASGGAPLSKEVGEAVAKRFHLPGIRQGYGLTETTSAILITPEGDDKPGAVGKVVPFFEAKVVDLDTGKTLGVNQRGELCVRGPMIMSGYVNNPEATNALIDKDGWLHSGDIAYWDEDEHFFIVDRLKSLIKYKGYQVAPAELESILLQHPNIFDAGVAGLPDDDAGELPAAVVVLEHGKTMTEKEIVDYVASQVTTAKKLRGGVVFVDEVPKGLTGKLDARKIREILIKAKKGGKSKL
Sphingosine 1-phosphate receptor 1, sequence (P21453 whole entry): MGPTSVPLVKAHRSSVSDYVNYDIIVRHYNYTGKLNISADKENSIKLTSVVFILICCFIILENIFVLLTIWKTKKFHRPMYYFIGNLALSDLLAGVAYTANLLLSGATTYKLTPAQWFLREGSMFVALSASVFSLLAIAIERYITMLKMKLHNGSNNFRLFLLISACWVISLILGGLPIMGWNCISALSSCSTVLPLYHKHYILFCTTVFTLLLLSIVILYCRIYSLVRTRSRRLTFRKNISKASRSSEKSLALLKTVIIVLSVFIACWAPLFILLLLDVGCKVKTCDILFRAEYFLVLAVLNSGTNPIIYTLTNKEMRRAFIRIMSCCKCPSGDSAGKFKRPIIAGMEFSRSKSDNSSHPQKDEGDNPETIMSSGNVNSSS

With `COc1ccc(NC(=O)/C(Cl)=C(/Cl)S(=O)(=O)Cc2ccc(C)cc2)cn1`, the IC50 is 0.564 µM (active) in experiment [1], 15.4 µM (not active) in experiment [2], 7.07 µM (active) in [3] and 1.48 µM (active) in experiment [5]. Also, in experiment [4], the AC50 is 4.27 µM (active). Moreover, the EC50 is 2.71 µM (active) on Protein RecA, 18.8 µM (active) with HT-1080 and < 0.2 µM (active) in [6].
Take `COc1ccc(C(c2c[nH]c3ccccc23)c2c[nH]c3ccccc23)cc1O`: the IC50 in [7] and in experiment [12] was > 69.5 µM (inactive) each time. Further, the EC50 in experiment [8] was 558 µM (active); in experiment [9], > 50 µM (not active); in experiment [11], 31 µM (active). In addition, in experiment [10], the AC50 is 4.09 µM (active).
Regarding `O=Cc1ccc(-c2ccc(Cl)cc2Cl)[nH]1`, the EC50 in experiment [13] and in experiment [16] was > 55.7 µM (not active) each time. In addition, the IC50 in [14] is > 100 µM (active). In experiment [15], the CC50 was > 40 µM (active).
